Reference: ChEMBL document CHEMBL3774313, “Natural product-based design, synthesis and biological evaluation of Albiziabioside A derivatives that selectively induce HCT116 cell death” (Eur J Med Chem, 2016)

Experiments:
Format in all cases: functional, cell-based
A549 = assay: Antiproliferative activity against human A549 cells assessed as cell viability after 72 hrs by MTT assay; conditions: A549, 72 h
[1] = Antiproliferative activity against human HL60 cells assessed as cell viability after 72 hrs by MTT assay; conditions: HL-60, 72 h
HepG2 = assay: Antiproliferative activity against human HepG2 cells assessed as cell viability after 72 hrs by MTT assay; conditions: HepG2, 72 h
MCF7 = assay: Antiproliferative activity against human MCF7 cells assessed as cell viability after 72 hrs by MTT assay; conditions: MCF7, 72 h
[2] = Antiproliferative activity against human HCT116 cells assessed as cell viability after 72 hrs by MTT assay; conditions: HCT-116, 72 h
HeLa = assay: Antiproliferative activity against human HeLa cells assessed as cell viability after 72 hrs by MTT assay
[3] = Cytotoxicity against mouse J774A1 cells assessed as cell viability after 72 hrs by MTT assay; conditions: J774.A1, 72 h

Structure (SMILES) | IC50 (A549) | IC50 [1] | IC50 (HepG2) | IC50 (MCF7) | IC50 [2] | IC50 (HeLa) | IC50 [3]
CC1(C)CC[C@]2(C(=O)O)CC[C@]3(C)C(=CC[C@@H]4[C@@]5(C)CC[C@H](O[C@@H]6O[C@H](CO[C@@H]7OC[C@H](O)[C@H](O)[C@H]7O)[C@@H](O)[C@H](O)[C@H]6NC(=O)/C=C/c6ccc(Cl)cc6)C(C)(C)[C@@H]5CC[C@]43C)[C@@H]2C1 | > 50 µM | > 50 µM | > 50 µM | > 50 µM | > 50 µM | > 50 µM | 
CC1(C)CC[C@]2(C(=O)O)CC[C@]3(C)C(=CC[C@@H]4[C@@]5(C)CC[C@H](O[C@@H]6O[C@H](CO[C@@H]7OC[C@H](O)[C@H](O)[C@H]7O)[C@@H](O)[C@H](O)[C@H]6NC(=O)/C=C/c6cccc(F)c6)C(C)(C)[C@@H]5CC[C@]43C)[C@@H]2C1 | 32.8 µM | > 50 µM | > 50 µM | > 50 µM | 8.5 µM | 48.4 µM | 
Cc1cccc(/C=C/C(=O)N[C@H]2[C@H](O[C@H]3CC[C@]4(C)[C@H]5CC=C6[C@@H]7CC(C)(C)CC[C@]7(C(=O)O)CC[C@@]6(C)[C@]5(C)CC[C@H]4C3(C)C)O[C@H](CO[C@@H]3OC[C@H](O)[C@H](O)[C@H]3O)[C@@H](O)[C@@H]2O)c1 | > 50 µM | > 50 µM | > 50 µM | > 50 µM | > 50 µM | > 50 µM | 
CCOc1ccc(/C=C/C(=O)N[C@H]2[C@H](O[C@H]3CC[C@]4(C)[C@H]5CC=C6[C@@H]7CC(C)(C)CC[C@]7(C(=O)O)CC[C@@]6(C)[C@]5(C)CC[C@H]4C3(C)C)O[C@H](CO[C@@H]3OC[C@H](O)[C@H](O)[C@H]3O)[C@@H](O)[C@@H]2O)cc1 | > 50 µM | > 50 µM | > 50 µM | > 50 µM | 13 µM | > 50 µM | 
CC1(C)CC[C@]2(C(=O)O)CC[C@]3(C)C(=CC[C@@H]4[C@@]5(C)CC[C@H](O[C@@H]6O[C@H](CO[C@@H]7OC[C@H](O)[C@H](O)[C@H]7O)[C@@H](O)[C@H](O)[C@H]6NC(=O)/C=C/c6ccc(F)cc6)C(C)(C)[C@@H]5CC[C@]43C)[C@@H]2C1 | > 50 µM | > 50 µM | > 50 µM | > 50 µM | 37.5 µM | > 50 µM | 
O=c1[nH]cc(F)c(=O)[nH]1 [FLUOROURACIL] | > 50 µM | 27.4 µM | 49 µM | 26.1 µM | 38.3 µM | 26.2 µM | 
CC(=O)N[C@H]1[C@H](O[C@H]2CC[C@]3(C)[C@H]4CC=C5[C@@H]6CC(C)(C)CC[C@]6(C(=O)O)CC[C@@]5(C)[C@]4(C)CC[C@H]3C2(C)C)O[C@H](CO)[C@@H](O)[C@@H]1O[C@@H]1O[C@H](CO)[C@H](O)[C@H](O)[C@H]1O [LOTOIDOSIDE E] |  |  |  |  |  |  | 0.018 µM
CC1(C)CC[C@]2(C(=O)O)CC[C@]3(C)C(=CC[C@@H]4[C@@]5(C)CC[C@H](O[C@@H]6O[C@H](CO[C@@H]7OC[C@H](O)[C@H](O)[C@H]7O)[C@@H](O)[C@H](O)[C@H]6NC(=O)/C=C/c6cccc(Br)c6)C(C)(C)[C@@H]5CC[C@]43C)[C@@H]2C1 | > 50 µM | > 50 µM | > 50 µM | > 50 µM | 10.2 µM | > 50 µM | 
COc1cccc(/C=C/C(=O)N[C@H]2[C@H](O[C@H]3CC[C@]4(C)[C@H]5CC=C6[C@@H]7CC(C)(C)CC[C@]7(C(=O)O)CC[C@@]6(C)[C@]5(C)CC[C@H]4C3(C)C)O[C@H](CO[C@@H]3OC[C@H](O)[C@H](O)[C@H]3O)[C@@H](O)[C@@H]2O)c1OC | > 50 µM | > 50 µM | > 50 µM | > 50 µM | > 50 µM | > 50 µM | 
COc1ccccc1/C=C/C(=O)N[C@H]1[C@H](O[C@H]2CC[C@]3(C)[C@H]4CC=C5[C@@H]6CC(C)(C)CC[C@]6(C(=O)O)CC[C@@]5(C)[C@]4(C)CC[C@H]3C2(C)C)O[C@H](CO[C@@H]2OC[C@H](O)[C@H](O)[C@H]2O)[C@@H](O)[C@@H]1O | > 50 µM | > 50 µM | > 50 µM | > 50 µM | > 50 µM | > 50 µM | 
COc1cc(/C=C/C(=O)N[C@H]2[C@H](O[C@H]3CC[C@]4(C)[C@H]5CC=C6[C@@H]7CC(C)(C)CC[C@]7(C(=O)O)CC[C@@]6(C)[C@]5(C)CC[C@H]4C3(C)C)O[C@H](CO[C@@H]3OC[C@H](O)[C@H](O)[C@H]3O)[C@@H](O)[C@@H]2O)cc(OC)c1 | > 50 µM | > 50 µM | > 50 µM | > 50 µM | > 50 µM | > 50 µM | 
CC1(C)CC[C@]2(C(=O)O)CC[C@]3(C)C(=CC[C@@H]4[C@@]5(C)CC[C@H](O[C@@H]6O[C@H](CO[C@@H]7OC[C@H](O)[C@H](O)[C@H]7O)[C@@H](O)[C@H](O)[C@H]6NC(=O)/C=C/c6ccc(Br)cc6)C(C)(C)[C@@H]5CC[C@]43C)[C@@H]2C1 | > 50 µM | > 50 µM | > 50 µM | > 50 µM | 33.2 µM | > 50 µM | 
CC(=O)N[C@H]1[C@H](O[C@H]2CC[C@]3(C)[C@H]4CC=C5[C@@H]6CC(C)(C)CC[C@]6(C(=O)O)CC[C@@]5(C)[C@]4(C)CC[C@H]3C2(C)C)O[C@H](CO[C@@H]2OC[C@H](O)[C@H](O)[C@H]2O)[C@@H](O)[C@@H]1O | 5.27 µM | 9.92 µM | 10.3 µM | 9.34 µM | 16 µM | 5.27 µM | 
CC1(C)CC[C@]2(C(=O)O)CC[C@]3(C)C(=CC[C@@H]4[C@@]5(C)CC[C@H](O[C@@H]6O[C@H](CO[C@@H]7OC[C@H](O)[C@H](O)[C@H]7O)[C@@H](O)[C@H](O)[C@H]6NC(=O)/C=C/c6ccc(OCc7ccccc7)cc6)C(C)(C)[C@@H]5CC[C@]43C)[C@@H]2C1 | > 50 µM | > 50 µM | > 50 µM | > 50 µM | 23.8 µM | > 50 µM | 
CC1(C)CC[C@]2(C(=O)O)CC[C@]3(C)C(=CC[C@@H]4[C@@]5(C)CC[C@H](O[C@@H]6O[C@H](CO[C@@H]7OC[C@H](O)[C@H](O)[C@H]7O)[C@@H](O)[C@H](O)[C@H]6NC(=O)/C=C/c6ccccc6)C(C)(C)[C@@H]5CC[C@]43C)[C@@H]2C1 | > 50 µM | > 50 µM | > 50 µM | 45.2 µM | 19.3 µM | 40.2 µM | 
CC1(C)CC[C@]2(C(=O)O)CC[C@]3(C)C(=CC[C@@H]4[C@@]5(C)CC[C@H](O[C@@H]6O[C@H](CO[C@@H]7OC[C@H](O)[C@H](O)[C@H]7O)[C@@H](O)[C@H](O)[C@H]6NC(=O)/C=C/c6cccc(Cl)c6)C(C)(C)[C@@H]5CC[C@]43C)[C@@H]2C1 | > 50 µM | > 50 µM | > 50 µM | > 50 µM | 11.9 µM | > 50 µM | 
COc1ccc(OC)c(/C=C/C(=O)N[C@H]2[C@H](O[C@H]3CC[C@]4(C)[C@H]5CC=C6[C@@H]7CC(C)(C)CC[C@]7(C(=O)O)CC[C@@]6(C)[C@]5(C)CC[C@H]4C3(C)C)O[C@H](CO[C@@H]3OC[C@H](O)[C@H](O)[C@H]3O)[C@@H](O)[C@@H]2O)c1 | > 50 µM | > 50 µM | > 50 µM | > 50 µM | > 50 µM | > 50 µM | 
CC1(C)CC[C@]2(C(=O)O)CC[C@]3(C)C(=CC[C@@H]4[C@@]5(C)CC[C@H](O[C@@H]6O[C@H](CO[C@@H]7OC[C@H](O)[C@H](O)[C@H]7O)[C@@H](O)[C@H](O)[C@H]6NC(=O)/C=C/c6ccc(C(C)(C)C)cc6)C(C)(C)[C@@H]5CC[C@]43C)[C@@H]2C1 | > 50 µM | > 50 µM | > 50 µM | > 50 µM | 13.6 µM | 39.2 µM | 
COc1ccc(/C=C/C(=O)N[C@H]2[C@H](O[C@H]3CC[C@]4(C)[C@H]5CC=C6[C@@H]7CC(C)(C)CC[C@]7(C(=O)O)CC[C@@]6(C)[C@]5(C)CC[C@H]4C3(C)C)O[C@H](CO[C@@H]3OC[C@H](O)[C@H](O)[C@H]3O)[C@@H](O)[C@@H]2O)cc1OC | > 50 µM | > 50 µM | > 50 µM | > 50 µM | > 50 µM | > 50 µM | 
CC(=O)N[C@H]1[C@H](O[C@H]2CC[C@]3(C)[C@H]4CC=C5[C@@H]6CC(C)(C)CC[C@]6(C(=O)O)CC[C@@]5(C)[C@]4(C)CC[C@H]3C2(C)C)O[C@H](CO)[C@@H](O[C@@H]2O[C@H](CO)[C@@H](O)[C@H](O)[C@H]2O)[C@@H]1O[C@H]1O[C@@H](CO)[C@@H](O)[C@@H](O)[C@@H]1O |  |  |  |  |  |  | 0.15 µM
Cc1ccc(/C=C/C(=O)N[C@H]2[C@H](O[C@H]3CC[C@]4(C)[C@H]5CC=C6[C@@H]7CC(C)(C)CC[C@]7(C(=O)O)CC[C@@]6(C)[C@]5(C)CC[C@H]4C3(C)C)O[C@H](CO[C@@H]3OC[C@H](O)[C@H](O)[C@H]3O)[C@@H](O)[C@@H]2O)cc1 | > 50 µM | > 50 µM | > 50 µM | 38.1 µM | 16.3 µM | > 50 µM | 
